Measurements reported in patent US6410012B1, “Antimicrobial mediated bacterial DNA delivery” (The United States of America as represented by the …, priority 1997, dated 2002).

Experiments:
BHK cells [1] = experiment: β-galactosidase activity in lysates of BHK cells infected with Shigella strains (plasmid DNA delivery); format: cell-based, baby hamster; settings: for ability of the antimicrobial to mediate bacterial plasmid DNA delivery: attenuated Shigella flexneri not programmed to lyse, in BHK cells
Experimental: (§1) The protocol used for these experiments consisted of diluting an overnight culture of the bacteria 1 in 50 and allowing it to grow to midlog phase, approximately 2.5 hours. The midlog cultures were then concentrated in Hank's Balanced Salts by centrifugation to approximately 10^9 bacteria per milliliter and a small aliquot was taken to determine the midlog bacterial count. Two milliliters of bacteria were added to the appropriate semi-confluent flask of BHK cells and allowed to incubate for ninety minutes at 37° C. and 5% CO2. After the incubation, the cells were rinsed with Hank's Balanced Salts (Sigma). In most cases the flasks were treated with complete DMEM containing […] gentamicin to kill all extracellular bacteria. Either antibiotic was then added at the designated time.
(§2) Harvesting of cells was carried out as follows. At the appropriate time point media was removed from the flasks and the flasks were rinsed thoroughly with Hank's Balanced Salts followed by Edda Twiddy's EDTA. Flasks were then treated with 5 milliliters of Trypsin-EDTA for 5 minutes at 37° C. and 5% CO2 to lift the adherent mammalian cells from the flask. Ten milliliters of room temperature DMEM with serum was added to inactivate the Trypsin-EDTA. The cells were pelleted at 2000 rpm for 12 minutes at room temperature and resuspended in 10 milliliters of phosphate buffered saline (PBS).
A 100 μl aliquot was taken and diluted in 0.1 % Triton X-100 and plated on diaminopimelic acid (DAP) supplemented congo red (Sigma) tryptic soy agar for 15D or TSA without DAP for SC602. The remainder was again pelleted and resuspended in 1.3 ml PM-2 buffer. 30 μl of 10% Triton X-100 was added and the sample was incubated at room temperature and vortexed frequently for ten minutes to lyse the BHK cells. The cellular debris was pelleted for […] at 13500×g and 4° C.
Four hundred microliters of the supernatant was combined with 400 μl of PM-2 buffer in a spectrophotometric cuvette and allowed to equilibrate to 37° C. 200 μl of ONPG reagent is then added to each sample and any applicable standards. The samples were incubated at 37° C. and timed until a vibrant yellow color appeared, at which point the reaction was complete. The absorbance of each sample was measured at 420 nm and recorded. β-galactosidase activity was calculated as Ab420×380/Time (minutes). To determine the total amount of protein present in each assayed sample 200 μl of cold (−20° C.) acetone was added to 50 μl of the above supernatants, vortexed thoroughly and stored at −20° C. for 30 minutes. The samples were then pelleted for 10 minutes at 14000 rpm and the supernatant was discarded. Samples were allowed to dry in a heated evacuating centrifuge and then resuspended in 50 μl dissociation buffer. The protein concentration was then determined using a standard BCA (Pierce) protein determination protocol. Results are reported as β-galactosidase activity per mg of protein.

BHK cells [2] = experiment: viable bacterial counts recovered from infected BHK cells; format: cell-based, baby hamster
Experimental: as §1
as §2, with “(PBS). […]” for “(PBS).”

## O=C(O)c1cn(C2CC2)c2cc(N3CCNCC3)c(F)cc2c1=O [ciprofloxacin]
BHK cells [1]; 15D(pCMVβ) infected monolayers treated just after the adherence/invasion step
  effect on delivery of plasmid DNA by 15D(pCMVβ): inhibited delivery of the plasmid DNA
BHK cells [1]; SC602(pCMVβ)
  ability of the antimicrobial to mediate bacterial plasmid DNA delivery: unable to mediate DNA delivery

## C[C@@H]1C[C@@H]([C@H](O)CC2CC(=O)NC(=O)C2)C(=O)[C@@H](C)C1 [cyclohexamide]
BHK cells [1]; 15D(pCMVβ) infected BHK cells, treated at various times after the adherence/invasion step
  effect on β-galactosidase activity: inhibition of β-galactosidase activity
BHK cells [2]; 15D(pCMVβ) infected BHK cells, treatment right after to two hours after the adherence/invasion step
  loss of viable bacteria: 1 log

## CC[C@H]1OC(=O)[C@H](C)[C@@H](O[C@H]2C[C@@](C)(OC)[C@@H](O)[C@H](C)O2)[C@H](C)[C@@H](O[C@@H]2O[C@H](C)C[C@H](N(C)C)[C@H]2O)[C@](C)(O)C[C@@H](C)CN(C)[C@H](C)[C@@H](O)[C@]1(C)O [azithromycin]
BHK cells [1]; addition 1 to 2 hours after adherence/invasion compared to just after, SC602(pCMVβ)
  effect of time of addition on β-galactosidase activity: greatly increased the amount of β-galactosidase activity
BHK cells [1]; SC602(pCMVβ)
  ability of the antimicrobial to mediate bacterial plasmid DNA delivery: capable of mediating bacterial-based plasmid DNA delivery
BHK cells [2]; after the addition of azithromycin to infected BHK cells
  effect on number of viable bacteria: no dramatic decrease in the number of viable bacteria was detected
